The numbers were not newly measured in PMC10005815 (Journal of Medicinal Chemistry, 2023), which cites them from elsewhere.

Read-outs that look alike come from different tables or passages of the source. * marks the point of attachment. Cbz = O=C(OCc1ccccc1)*

For series [1] the following is noted: rat, in vivo.
The target of another series is SARS-CoV-1 M^pro. The settings on record: for Ki: read-out: SARS-CoV-1 M^pro Ki.
The subject of series [2] is SARS-CoV-1.
The next series concerns HCoV-229E. The settings on record: for EC50: read-out: HCoV-229E EC50.
A further series concerns the target RdRp from SARS-CoV-2. The following applies: read-out: Predicted Ki for binding to the protein active site.
Series [3] has as its system SARS-CoV-1. The following applies: mouse, in vivo.
In series [4] the test system is TMPRSS2.
Series [5] deals with TMPRSS2. This is another data set of the same source.
Series [6] relates to SARS-CoV-2 Omicron BA.1 and BA.2. The settings on record: in vivo.
In series [7] the test system is MERS-CoV S protein-mediated cell–cell fusion. The following applies: read-out: IC50 in vitro fusion assay (MERS-CoV).
Another series has as its system panel of proteases. The settings on record: read-out: IC50 proteases (selectivity panel).
A further series deals with HCoV-OC43. The settings on record: read-out: HCoV-OC43 EC90.
The conditions of series [8]: buffer.
In the next series the test system is COVID-19. The settings on record: human, in vivo.
The subject of series [9] is human mitochondrial RNA polymerase (h-mtRNAP).
The mark [10] stands for this setting: read-out: SARS-CoV-1 M^pro IC50.

On to `COc1cccc2[nH]c(C(=O)N[C@@H](CC(C)C)C(=O)N[C@@H](C[C@@H]3CCNC3=O)C(=O)c3nc4ccccc4s3)cc12` [5h], for which, in [1], the Bioavailability result was “low bioavailability”. Further, the Ki at SARS-CoV-2 M^pro (read-out: SARS-CoV-2 M^pro Ki) was 17.6 nM; at SARS-CoV-1 M^pro, 6.3 nM.
As to `O=C(/C=C/c1ccccc1)N[C@@H](CC1CCCCC1)C(=O)N[C@@H](C[C@@H]1CCNC1=O)C(=O)C(=O)NCc1ccccc1` [11r], the “S.I. MERS-CoV (CC50/EC50)” value in the series with MERS-CoV is on record as 1.1 × 10^5. Further, the EC50 was 2100 nM in the series with SARS-CoV-1 [2] (read-out: SARS-CoV-1 EC50) and 1800 nM with HCoV-229E. The IC50 in the series on SARS-CoV-1 M^pro (setting [10]) is 710 nM; with HCoV-NL63 M^pro, 12300 nM.
As for `CC(C)(C)OC(=O)Nc1cccn([C@@H](CC2CC2)C(=O)N[C@@H](C[C@@H]2CCNC2=O)C(=O)C(=O)NCc2ccccc2)c1=O` [13b], the IC50 in the series on SARS-CoV-1 M^pro (setting [10]) is 900 nM. In addition, the EC50 with SARS-CoV-1 replicon is 1750 nM; with SARS-CoV-2 (read-out: SARS-CoV-2 EC50) it was 4000 nM.
`COc1cccc2[nH]c(C(=O)N[C@@H](CC(C)C)C(=O)N[C@@H](C[C@@H]3CCCNC3=O)C(=O)COC(=O)c3c(C)cc(C)nc3C)cc12` [15l]: the EC50 with HCoV-229E is 48 nM. In addition, the IC50 in the series on SARS-CoV-2 M^pro (read-out: SARS-CoV-2 M^pro IC50) was 19 nM.
As for `O=C[C@H](C[C@@H]1CCNC1=O)NC(=O)[C@H](Cc1ccccc1)NC(=O)c1cc2ccccc2[nH]1` [18p], the EC50 in the series on SARS-CoV-2 (read-out: SARS-CoV-2 EC50) is 290 nM.
For `O=C(O)C1=CC(=C(c2ccc(O)c(C(=O)O)c2)c2ccc(O)c(C(=O)O)c2)C=CC1=O` [ATA, Aurintricarboxylic acid], in the series with SARS-CoV-1 [2], the “Inhibition of mRNA transcription with respect to control” value was “more than 1000 fold” and the “SARS-CoV-1 replication IC50” value was 200 µg/mL.
For `Cc1cccc(/C=N/Nc2cc(N3CCOCC3)nc(OCCc3ccccn3)n2)c1` [Apilimod], the “Concentration preventing EVD infection of several cell lines” value in the series on Ebola is approximately 0.1 µM.
With `COc1ccc2c(c1)[C@@H]1C[C@]1(C(=O)N1[C@@H]3CC[C@H]1CN(C)C3)Cn1c-2c(C2CCCCC2)c2ccc(C(=O)NS(=O)(=O)N(C)C)cc21` [Beclabuvir], the inhibition constant Ki on RdRp from SARS-CoV-2 is approximately 50 nM.
For the compound `CN(C)C(=O)COC(=O)Cc1ccc(OC(=O)c2ccc(NC(=N)N)cc2)cc1` [Camostat], the “Survival rate to SARS-CoV-1” value in the series with SARS-CoV-1 [3] is listed as approximately 60%. The “Reduction of MERS-CoV production” value in the series on MERS-CoV is listed as 270 fold.
On to `NC1(C(=O)N[C@@H](CCO)c2ccc(Cl)cc2)CCN(c2ncnc3[nH]ccc23)CC1` [Capivasertib], for which the 50% cytotoxicity concentration in the series on Vero cells was 82 µM.
`CCOC(=O)[C@H]1OC1C(=O)N[C@@H](CC(C)C)C(=O)NCCC(C)C` (stereo partly drawn) [E64D]: in the series on SARS-CoV-2 PsV, the “Reduction in the entry of SARS-CoV-2 PsV” value was 92.5%.
In the case of `N=C(N)Nc1ccc(C(=O)O)cc1` [GBA, 4-guanidinobenzoic acid], the TMPRSS2 inhibition result with TMPRSS2 [4] was “inactive”.
With `N=C(N)c1cccc(C[C@H](NS(=O)(=O)c2cccc(-c3ccc(Cl)cc3Cl)c2)C(=O)N2CCC(CCN)CC2)c1` [I-432], on TMPRSS2 [5], the Ki is 0.9 nM.
For `CC(C)C(=O)OC[C@H]1O[C@@H](n2ccc(NO)nc2=O)[C@H](O)[C@@H]1O` [Molnupiravir], the “Effect on virus titers” value in series [6] was “only reduced the lung virus titers”. Besides, the “Efficacy in inhibiting SARS-CoV-2 replication relative to remdesivir” value with SARS-CoV-2 is given as 5–10 fold.
As for `Cc1cc(C(=O)N[C@@H](C)C(=O)N[C@H](C(=O)N[C@@H](CC(C)C)C(=O)N[C@H](/C=C/C(=O)OCc2ccccc2)C[C@@H]2CCNC2=O)C(C)C)no1` [N3], at HCoV-229E M^pro, the Ki was 1670 nM.
Take `N=C(N)Nc1ccc(C(=O)Oc2ccc3cc(C(=N)N)ccc3c2)cc1` [Nafamostat]: the IC50 in series [7] was approximately 1 nM.
In the case of `COc1cccc2[nH]c(C(=O)N[C@@H](CC(C)C)C(=O)N[C@@H](C[C@@H]3CCNC3=O)C(=O)CO)cc12` [PF-00835231], the IC50 in the series with panel of proteases is more than 10000 nM. Also, the EC50 in the series on SARS-CoV-1 [2] (read-out: SARS-CoV-1 EC50) was 4800 nM.
As for `CC(C)(C)[C@H](NC(=O)C(F)(F)F)C(=O)N1C[C@H]2[C@@H]([C@H]1C(=O)N[C@H](C#N)C[C@@H]1CCNC1=O)C2(C)C` [PF-07321332], the “Effect on virus titers” value in [6] is given as “only reduced the lung virus titers”.
For `Cn1cnc(Cn2c(=O)[nH]/c(=N\c3cc4cn(C)nc4cc3Cl)n(Cc3cc(F)c(F)cc3F)c2=O)n1` [S-217622], the EC50 was 1400 nM in the series with MERS-CoV (read-out: MERS-CoV EC50), 210 nM with SARS-CoV-1 [2] (read-out: SARS-CoV-1 EC50), 5500 nM with HCoV-229E and 370 nM in the series on SARS-CoV-2 (read-out: SARS-CoV-2 WT strain EC50). Besides, in series [6], the “Effect on virus titers” value is on record as “additionally decreased the virus titers in the nasal turbinates”. The EC90 in the series on HCoV-OC43 is 74 nM. Besides, the CC50 in the series with Vero E6/TMPRSS2 cells was more than 100000 nM.
In the case of `CCC(C)(C)NC(=O)C(c1ccn(C)c1)N(C(=O)Cn1nnc2ccccc21)c1ccc(NC(C)=O)cc1` (stereo not drawn) [SID24808289], the IC50 is more than 60000 nM in the series on SARS-CoV-1 PL^pro and 6200 nM in the series with SARS-CoV-1 M^pro (setting [10]).
For the compound `CCc1ccccc1NC(=O)CSC(=O)NNC(=O)[C@H](Cc1c[nH]c2ccccc12)NC(=O)OC(C)(C)C` [SID-26681509], the “Decrease of SARS-CoV-2 pseudovirion entry” value in the series with SARS-CoV-2 PsV is reported as “about 76%”.
On to `CC(OC(C)(C)C)[C@H](NC(=O)OCc1ccccc1)C(=O)N[C@@H](CC1CCCCC1)C(=O)N[C@H](C=O)C[C@@H]1CCNC1=O` (stereo partly drawn) [TG-0205221], for which the Ki on HCoV-229E M^pro was 68 nM; on SARS-CoV-1 M^pro, 53 nM.
In the case of `COc1ccc(C(=O)Nc2cccc(C(F)(F)F)c2)cc1Nc1nc(-c2cccnc2)c2[nH]ccc2n1` [XMU-MP-7], at Akt, the Kd was 6.4 nM.
As to `CN(C)CCCSc1ccccc1NC(=O)/C=C/c1ccccc1` [cinanserin], the IC50 was 19000 nM in the series on HCoV-229E (read-out: HCoV-229E IC50 (antiviral assay)) and approximately 5000 nM with SARS-CoV-1 M^pro (read-out: M^pro IC50).
With `O=C(On1nnc2ccccc21)c1ccc2[nH]ccc2c1` [compound 8], the Ki at SARS-CoV-1 M^pro was 7.5 nM.
As to `O=C(Oc1cncc(Cl)c1)c1cccc2[nH]ccc12` [compound 10], in the series on SARS-CoV-1 [2] (read-out: SARS-CoV-1 EC50), the EC50 is 6900 nM. For the same compound, in the series with SARS-CoV-1 M^pro (setting [10]), the IC50 is 30 nM.
Take `O=C(Oc1cncc(Br)c1)c1ccco1` [compound 39]: the T1/2 entry in series [8] was “[drawing 13] 39 SARS-CoV-1 M^pro IC50= 50 nM T1/2 = 119 h, phosphate buffer pH= 7.5”. Also, the IC50 with SARS-CoV-1 M^pro (setting [10]) was 50 nM.
Regarding `CCOc1cc2ncc(C#N)c(Nc3ccc(F)c(Cl)c3)c2cc1NC(=O)/C=C/CN(C)C` [pelitinib], the EC50 in the series on SARS-CoV-2 (read-out: EC50 (antiviral)) was 1250 nM.
On to `CCC(CC)COC(=O)[C@H](C)N[P@](=O)(OC[C@H]1O[C@@](C#N)(c2ccc3c(N)ncnn23)[C@H](O)[C@@H]1O)Oc1ccccc1` [remdesivir, Remdesivir], for which, in the series on Vero E6 cells, the CC50 was more than 100000 nM. In the series on COVID-19, the “Reduction of hospitalization compared to placebo” value is listed as 87%. Besides, the IC50 in the series with SARS-CoV-2 (read-out: SARS-CoV-2 infection IC50) was 770 nM.
For `N#C[C@@]1(c2ccc3c(N)ncnn23)O[C@H](COP(=O)(O)OP(=O)(O)OP(=O)(O)O)[C@@H](O)[C@H]1O` [remdesivir-TP], the “Selectivity with respect to ATP” value in [9] is recorded as “up to 500 fold”.
Take Cbz-Val-Phe-aldehyde [MDL28170]: the EC50 in the series on SARS-CoV-1 [2] (read-out: EC50 neutral red uptake assay) was 500 nM.

Usually Ki stands for a measure of affinity in units of concentration, obtained from inhibition or displacement. As usually defined, the EC50 is the midpoint of the concentration-response curve. What is called IC50 is the point on the concentration scale where inhibition reaches its midpoint. By EC90 is commonly meant the point of the concentration-response curve where the effect stands at 90%. One may read the CC50 as the concentration at which the toxic effect on the cells reaches its halfway point. As usually defined, the Kd is the concentration at which binding is half-saturated.
